Measurements reported in US9540366B2, “Ring-fused heterocyclic compound” (Kyowa Hakko Kirin Co., Ltd., priority 2012, dated 2017).
Structures can show the parent of a compound that is named as a salt. Where two headings read alike, the source gives them in different places.

Target: T1, human Cav3.2 T-type Ca2+ channel (Homo sapiens, UniProt O95180)
T1 construct: expressed in transfected cells; host or cells: KJMGER8 cells (Namalwa cell-derived cell line)
Assay: Inhibitory effect for intracellular calcium response via Cav3.2 T-type Ca2+ channels (FLIPR Calcium 3 Assay Kit)
Assay type: cell-based

[1] = human Cav3.2-expressing KJMGER8 cells (Namalwa-derived), calcium response induced by 5 mmol/L CaCl2, 3 μmol/L mibefradil as reference, read-out: IC50 for the human Cav3.2 T-type Ca2+ current

T1 sequence (O95180 whole entry): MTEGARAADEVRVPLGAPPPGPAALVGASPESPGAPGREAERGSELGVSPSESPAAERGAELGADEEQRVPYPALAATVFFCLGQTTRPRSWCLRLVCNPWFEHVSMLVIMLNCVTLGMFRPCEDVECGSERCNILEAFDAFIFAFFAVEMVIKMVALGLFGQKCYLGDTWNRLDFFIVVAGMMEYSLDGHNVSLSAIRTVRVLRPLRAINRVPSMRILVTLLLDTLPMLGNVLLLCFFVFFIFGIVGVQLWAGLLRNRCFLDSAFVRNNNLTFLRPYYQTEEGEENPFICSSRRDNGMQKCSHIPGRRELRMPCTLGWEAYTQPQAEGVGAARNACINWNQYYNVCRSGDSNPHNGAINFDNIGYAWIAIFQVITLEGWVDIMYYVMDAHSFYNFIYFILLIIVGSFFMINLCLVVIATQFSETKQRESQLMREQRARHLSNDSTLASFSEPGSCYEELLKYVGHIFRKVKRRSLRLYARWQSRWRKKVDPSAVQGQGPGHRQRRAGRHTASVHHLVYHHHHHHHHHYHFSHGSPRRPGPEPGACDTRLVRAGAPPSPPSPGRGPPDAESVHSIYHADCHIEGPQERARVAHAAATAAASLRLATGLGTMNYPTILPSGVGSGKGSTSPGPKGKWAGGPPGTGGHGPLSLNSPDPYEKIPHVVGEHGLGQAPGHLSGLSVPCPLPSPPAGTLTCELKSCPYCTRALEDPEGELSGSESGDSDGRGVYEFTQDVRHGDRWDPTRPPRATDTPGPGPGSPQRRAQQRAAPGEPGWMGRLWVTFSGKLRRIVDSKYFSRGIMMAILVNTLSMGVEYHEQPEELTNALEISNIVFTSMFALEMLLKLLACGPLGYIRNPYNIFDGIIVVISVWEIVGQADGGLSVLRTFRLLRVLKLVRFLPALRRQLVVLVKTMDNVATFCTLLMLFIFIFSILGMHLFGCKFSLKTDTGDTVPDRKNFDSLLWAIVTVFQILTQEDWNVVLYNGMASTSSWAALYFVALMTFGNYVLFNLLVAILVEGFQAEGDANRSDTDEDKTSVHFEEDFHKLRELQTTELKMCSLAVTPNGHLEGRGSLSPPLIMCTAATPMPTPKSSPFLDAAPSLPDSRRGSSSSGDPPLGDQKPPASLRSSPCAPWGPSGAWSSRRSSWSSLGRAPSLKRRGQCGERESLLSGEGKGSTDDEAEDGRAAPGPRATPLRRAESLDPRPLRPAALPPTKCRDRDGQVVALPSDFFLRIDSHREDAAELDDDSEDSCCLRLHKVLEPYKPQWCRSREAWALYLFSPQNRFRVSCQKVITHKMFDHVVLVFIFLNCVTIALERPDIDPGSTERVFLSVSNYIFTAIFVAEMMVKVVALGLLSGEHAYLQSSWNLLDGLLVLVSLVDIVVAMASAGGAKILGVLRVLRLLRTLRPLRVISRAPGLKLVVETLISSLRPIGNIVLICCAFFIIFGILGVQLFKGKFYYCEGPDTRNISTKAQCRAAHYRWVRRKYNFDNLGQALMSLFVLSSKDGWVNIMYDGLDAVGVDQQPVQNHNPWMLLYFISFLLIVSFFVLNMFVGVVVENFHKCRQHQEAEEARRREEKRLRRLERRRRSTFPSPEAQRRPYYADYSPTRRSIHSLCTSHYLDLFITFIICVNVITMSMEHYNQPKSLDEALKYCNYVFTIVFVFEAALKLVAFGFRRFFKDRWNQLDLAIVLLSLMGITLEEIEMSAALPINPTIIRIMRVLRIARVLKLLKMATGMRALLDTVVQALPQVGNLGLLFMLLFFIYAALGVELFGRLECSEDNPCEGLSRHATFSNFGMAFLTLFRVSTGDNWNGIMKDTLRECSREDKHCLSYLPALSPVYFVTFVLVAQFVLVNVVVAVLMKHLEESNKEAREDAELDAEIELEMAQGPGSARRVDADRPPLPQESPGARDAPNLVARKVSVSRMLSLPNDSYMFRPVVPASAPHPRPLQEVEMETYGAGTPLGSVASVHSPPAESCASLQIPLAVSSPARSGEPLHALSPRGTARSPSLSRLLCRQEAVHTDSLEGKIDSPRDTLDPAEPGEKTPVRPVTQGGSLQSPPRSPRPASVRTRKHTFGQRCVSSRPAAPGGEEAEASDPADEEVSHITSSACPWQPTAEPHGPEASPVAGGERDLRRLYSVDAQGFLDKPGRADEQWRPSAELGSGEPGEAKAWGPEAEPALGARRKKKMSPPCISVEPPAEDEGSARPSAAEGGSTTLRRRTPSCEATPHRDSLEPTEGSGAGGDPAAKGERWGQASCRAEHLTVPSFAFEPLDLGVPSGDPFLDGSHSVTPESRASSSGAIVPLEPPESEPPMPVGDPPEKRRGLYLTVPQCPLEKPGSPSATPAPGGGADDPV

SMILES	IC50 [nM]	IC50 [1] [nM]
CCOC(=O)C(=O)CNC(=O)c1cc(C)n2c(CC3CCC(F)(F)CC3)c(C(F)(F)F)nc2c1 [Compound 124, Ethyl 3-{3-[(4,4-difluorocyclohexyl)methyl]-5-methyl-2-(trifluoromethyl)imidazo[1,2-a]pyridine-7-carboxamide}-2-oxopropanoate]	≤ 100	–
O=C(NCC1(O)CC1)c1cc(Cl)n2c(CC3CCC(F)(F)CC3)c(C(F)(F)F)nc2c1 [Compound 125, 5-Chloro-3-[(4,4-difluorocyclohexyl)methyl]-N-[(1-hydroxycyclopropyl)methyl]-2-(trifluoromethyl)imidazo[1,2-a]pyridine-7-carboxamide]	≤ 100	–
Cc1cc(C(=O)NC2CCC3(CC2)COC3)cc2nc(C(F)(F)F)c(CC3CCC(F)(F)CC3)n12 [Compound 126, 3-[(4,4-Difluorocyclohexyl)methyl]-5-methyl-N-(2-oxaspiro[3.5]nonan-7-yl)-2-(trifluoromethyl)imidazo[1,2-a]pyridine-7-carboxamide]	–	≤ 100
CC(F)(F)c1nc2cc(C(=O)NC3CCC4(CC3)COC4)c(Cl)cn2c1CC1CCC(F)(F)CC1 [Compound 127, 6-Chloro-3-[(4,4-difluorocyclohexyl)methyl]-2-(1,1-difluoroethyl)-N-(2-oxaspiro[3.5]nonan-7-yl)imidazo[1,2-a]pyridine-7-carboxamide]	≤ 100	–
CC(NC(=O)c1cc(Cl)n2c(CC3CCC(F)(F)CC3)c(C(F)(F)F)nc2c1)C(=O)NC1CCOCC1 (stereo not drawn) [Compound 128, 5-Chloro-3-[(4,4-difluorocyclohexyl)methyl]-N-[1-oxo-1-(tetrahydro-2H-pyran-4-ylamino)propan-2-yl]-2-(trifluoromethyl)imidazo[1,2-a]pyridine-7-carboxamide]	≤ 100	–
O=C(CNC(=O)c1cc(Cl)n2c(CC3CCC(F)(F)CC3)c(C(F)(F)F)nc2c1)NC1CCOC1 (stereo not drawn) [Compound 131, 5-Chloro-3-[(4,4-difluorocyclohexyl)methyl]-N-[2-oxo-2-(tetrahydrofuran-3-ylamino)ethyl]-2-(trifluoromethyl)imidazo[1,2-a]pyridine-7-carboxamide]	≤ 100	–
COc1c(C(=O)NC2CCOCC2)cc(C)n2c(CC3CCC(F)(F)CC3)c(C(F)(F)F)nc12 [Compound 133, 3-[(4,4-Difluorocyclohexyl)methyl]-8-methoxy-5-methyl-N-(tetrahydro-2H-pyran-4-yl)-2-(trifluoromethyl)imidazo[1,2-a]pyridine-7-carboxamide]	≤ 100	–
CCOC(=O)C1(NC(=O)c2cc(Cl)n3c(CC4CCC(F)(F)CC4)c(C(F)(F)F)nc3c2)CC1 [Compound 135, Ethyl 1-{5-chloro-3-[(4,4-difluorocyclohexyl)methyl]-2-(trifluoromethyl)imidazo[1,2-a]pyridine-7-carboxamide}cyclopropanecarboxylate]	≤ 100	–
Cc1cc(C(=O)NC2CC3(COC3)C2)cc2nc(C(C)(F)F)c(CC3CCC(F)(F)CC3)n12 [Compound 136, 3-[(4,4-Difluorocyclohexyl)methyl]-2-(1,1-difluoroethyl)-5-methyl-N-(2-oxaspiro[3.3]heptan-6-yl)imidazo[1,2-a]pyridine-7-carboxamide]	≤ 100	–
Cc1cc(C(=O)NC2CC3(COC3)C2)cc2nc(C(C)(C)C)c(CC3CCC(F)(F)CC3)n12 [Compound 137, 2-tert-Butyl-3-[(4,4-difluorocyclohexyl)methyl]-5-methyl-N-(2-oxaspiro[3.3]heptan-6-yl)imidazo[1,2-a]pyridine-7-carboxamide]	≤ 100	–
Cc1cc(NC(=O)c2cc(C#N)n3c(CC4CCC(F)(F)CC4)c(C(F)(F)F)nc3c2)on1 [Compound 138, 5-Cyano-3-[(4,4-difluorocyclohexyl)methyl]-N-(3-methylisoxazol-5-yl)-2-(trifluoromethyl)imidazo[1,2-a]pyridine-7-carboxamide]	–	≤ 100
CCOC(=O)CNC(=O)c1cc(C#N)n2c(CC3CCC(F)(F)CC3)c(C(F)(F)F)nc2c1 [Compound 139, Ethyl 2-{5-cyano-3-[(4,4-difluorocyclohexyl)methyl]-2-(trifluoromethyl)imidazo[1,2-a]pyridine-7-carboxamide}acetate]	≤ 100	–
N#Cc1cc(C(=O)NC2CCOC2=O)cc2nc(C(F)(F)F)c(CC3CCC(F)(F)CC3)n12 (stereo not drawn) [Compound 140, 5-Cyano-3-[(4,4-difluorocyclohexyl)methyl]-N-(2-oxotetrahydrofuran-3-yl)-2-(trifluoromethyl)imidazo[1,2-a]pyridine-7-carboxamide]	≤ 100	–
COC1(CNC(=O)c2cc(C#N)n3c(CC4CCC(F)(F)CC4)c(C(F)(F)F)nc3c2)CCOCC1 [Compound 141, 5-Cyano-3-[(4,4-difluorocyclohexyl)methyl]-N-[(4-methoxytetrahydro-2H-pyran-4-yl)methyl]-2-(trifluoromethyl)imidazo[1,2-a]pyridine-7-carboxamide]	≤ 100	–
O=C(NNC(=O)C1CC1)c1cc(Cl)n2c(CC3CCC(F)(F)CC3)c(C(F)(F)F)nc2c1 [Compound 142, 5-Chloro-N′-(cyclopropanecarbonyl)-3-[(4,4-difluorocyclohexyl)methyl]-2-(trifluoromethyl)imidazo[1,2-a]pyridine-7-carbohydrazide]	≤ 100	–
O=C(CC1CCOCC1)NNC(=O)c1cc(Cl)n2c(CC3CCC(F)(F)CC3)c(C(F)(F)F)nc2c1 [Compound 143, 5-Chloro-3-[(4,4-difluorocyclohexyl)methyl]-N′-[2-(tetrahydro-2H-pyran-4-yl)acetyl]-2-(trifluoromethyl)imidazo[1,2-a]pyridine-7-carbohydrazide]	≤ 100	–
CCCCc1c(C(C)C)nc2cc(C(=O)Nc3ccccc3)ccn12 [Compound 144, 3-Butyl-2-isopropyl-N-phenylimidazo[1,2-a]pyridine-7-carboxamide]	≤ 100	–
Cc1cc(C(=O)NC2CC3(COC3)C2)cc2nc(C(C)C)c(CC3CCC(F)(F)CC3)n12 [Compound 145, 3-[(4,4-Difluorocyclohexyl)methyl]-2-isopropyl-5-methyl-N-(2-oxaspiro[3.3]heptan-6-yl)imidazo[1,2-a]pyridine-7-carboxamide]	≤ 100	–
N#Cc1cc(C(=O)NC2CC3(COC3)C2)cc2nc(C(F)(F)F)c(CC3CCC(F)(F)CC3)n12 [Compound 146, 5-Cyano-3-[(4,4-difluorocyclohexyl)methyl]-N-(2-oxaspiro[3.3]heptan-6-yl)-2-(trifluoromethyl)imidazo[1,2-a]pyridine-7-carboxamide]	–	≤ 100
CC(F)(F)c1nc2cc(C(=O)NC3CC4(COC4)C3)c(Cl)cn2c1CC1CCC(F)(F)CC1 [Compound 147, 6-Chloro-3-[(4,4-difluorocyclohexyl)methyl]-2-(1,1-difluoroethyl)-N-(2-oxaspiro[3.3]heptan-6-yl)imidazo[1,2-a]pyridine-7-carboxamide]	≤ 100	–
CC(C)(C)c1nc2cc(C(=O)NC3CC4(COC4)C3)c(Cl)cn2c1CC1CCC(F)(F)CC1 [Compound 148, 2-tert-Butyl-6-chloro-3-[(4,4-difluorocyclohexyl)methyl]-N-(2-oxaspiro[3.3]heptane-6-yl)imidazo[1,2-a]pyridine-7-carboxamide]	≤ 100	–
N#Cc1cc(C(=O)NCCCN2CCCC2=O)cc2nc(C(F)(F)F)c(CC3CCC(F)(F)CC3)n12 [Compound 149, 5-Cyano-3-[(4,4-difluorocyclohexyl)methyl]-N-[3-(2-oxopyrrolidin-1-yl)propyl]-2-(trifluoromethyl)imidazo[1,2-a]pyridine-7-carboxamide]	–	≤ 100
N#Cc1cc(C(=O)N2CCOC2=O)cc2nc(C(F)(F)F)c(CC3CCC(F)(F)CC3)n12 [Compound 150, 3-[(4,4-Difluorocyclohexyl)methyl]-7-(2-oxoxazolidine-3-carbonyl)-2-(trifluoromethyl)imidazo[1,2-a]pyridine-5-carbonitrile]	–	≤ 100
O=C(CNC(=O)c1cc(Cl)n2c(CC3CCC(F)(F)CC3)c(C(F)(F)F)nc2c1)Nc1ccccc1 [Compound 151, 5-Chloro-3-[(4,4-difluorocyclohexyl)methyl]-N-[2-oxo-2-(phenylamino)ethyl]-2-(trifluoromethyl)imidazo[1,2-a]pyridine-7-carboxamide]	≤ 100	–
Cc1cc(CNC(=O)c2cc(Cl)n3c(CC4CCC(F)(F)CC4)c(C(F)(F)F)nc3c2)[nH]n1 [Compound 152, 5-Chloro-3-[(4,4-difluorocyclohexyl)methyl]-N-[(3-methyl-1H-pyrazol-5-yl)methyl]-2-(trifluoromethyl)imidazo[1,2-a]pyridine-7-carboxamide]	–	≤ 100
Cc1cc(CNC(=O)c2cc(Cl)n3c(CC4CCC(F)(F)CC4)c(C(F)(F)F)nc3c2)no1 [Compound 154, 5-Chloro-3-[(4,4-difluorocyclohexyl)methyl]-N-[(5-methylisoxazol-3-yl)methyl]-2-(trifluoromethyl)imidazo[1,2-a]pyridine-7-carboxamide]	–	≤ 100
CC(C)(CO)CNC(=O)c1cc(C#N)n2c(CC3CCC(F)(F)CC3)c(C(F)(F)F)nc2c1 [Compound 155, 5-Cyano-3-[(4,4-difluorocyclohexyl)methyl]-N-(3-hydroxy-2,2-dimethylpropyl)-2-(trifluoromethyl)imidazo[1,2-a]pyridine-7-carboxamide]	≤ 100	–
CN(C)C(C)(C)CNC(=O)c1cc(C#N)n2c(CC3CCC(F)(F)CC3)c(C(F)(F)F)nc2c1 [Compound 156, 5-Cyano-3-[(4,4-difluorocyclohexyl)methyl]-N-[2-(dimethylamino)-2-methylpropyl]-2-(trifluoromethyl)imidazo[1,2-a]pyridine-7-carboxamide]	≤ 100	–
CC(C)(CNC(=O)c1cc(C#N)n2c(CC3CCC(F)(F)CC3)c(C(F)(F)F)nc2c1)COC=O [Compound 157, 3-(5-Cyano-3-[(4,4-difluorocyclohexyl)methyl]-2-(trifluoromethyl)imidazo[1,2-a]pyridine-7-carboxamide)-2,2-dimethylpropyl formate]	≤ 100	–
CC(F)(F)c1nc2cc(C(=O)NC3CCOCC3)cc(C=O)n2c1CC1CCC(F)(F)CC1 [Compound 158, 3-[(4,4-Difluorocyclohexyl)methyl]-2-(1,1-difluoroethyl)-5-formyl-N-(tetrahydro-2H-pyran-4-yl)imidazo[1,2-a]pyridine-7-carboxamide]	≤ 100	–
